# Laboratory results reported in ChEMBL document CHEMBL1201862, “PubChem BioAssay data set” (2004).
# The source made the active and inactive calls.
# Experiments:
# Cytochrome P450 1A2 = target: T1, Cytochrome P450 1A2 (Homo sapiens, UniProt P05177);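 also: PubChem cytochrome P450 panel assay, CYP1A2 panel member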
# T1 sequence (P05177 whole entry): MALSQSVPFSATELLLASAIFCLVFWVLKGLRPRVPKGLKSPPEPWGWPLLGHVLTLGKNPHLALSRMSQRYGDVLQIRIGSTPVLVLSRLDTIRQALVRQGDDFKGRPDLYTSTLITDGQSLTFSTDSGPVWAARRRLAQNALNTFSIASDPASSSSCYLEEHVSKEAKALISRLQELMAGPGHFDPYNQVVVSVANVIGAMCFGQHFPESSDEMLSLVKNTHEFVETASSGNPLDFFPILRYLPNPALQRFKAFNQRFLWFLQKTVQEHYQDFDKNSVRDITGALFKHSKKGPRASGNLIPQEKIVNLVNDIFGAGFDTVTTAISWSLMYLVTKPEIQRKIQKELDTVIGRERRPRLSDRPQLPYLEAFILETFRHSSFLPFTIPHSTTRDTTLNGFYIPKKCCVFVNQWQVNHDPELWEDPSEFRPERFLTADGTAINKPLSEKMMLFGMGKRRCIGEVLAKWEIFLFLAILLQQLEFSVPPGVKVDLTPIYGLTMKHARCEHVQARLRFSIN
# Cytochrome P450 2D6 = Cytochrome P450 2D6 (Homo sapiens, UniProt P10635);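 also: CYP2D6 member of a cytochrome P450 panel assay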
# Cytochrome P450 3A4 = Cytochrome P450 3A4 (Homo sapiens, UniProt P08684);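 also: CYP3A4 tested as one member of a cytochrome P450 panel screen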
# Cytochrome P450 2C9 = Cytochrome P450 2C9 (Homo sapiens, UniProt P11712)
# HeLa = experiment: ATP-based viability loss in HeLa cells – cell-based, CellTiter-Glo luminescence, cherry-pick samples, cytotoxicity control for MITF activator project, dose response (AID 540259); format: functional; conditions: Homo sapiens
# [1] = target: T2, Carboxy-terminal domain RNA polymerase II polypeptide A small phosphatase 1 (Homo sapiens, UniProt Q9GZU7); experiment: CTDSP1 inhibitors, concentration-response, biochemical, absorbance readout, ultra-high-throughput screen actives (AID 540297); format: functional
# T2 sequence (Q9GZU7 whole entry): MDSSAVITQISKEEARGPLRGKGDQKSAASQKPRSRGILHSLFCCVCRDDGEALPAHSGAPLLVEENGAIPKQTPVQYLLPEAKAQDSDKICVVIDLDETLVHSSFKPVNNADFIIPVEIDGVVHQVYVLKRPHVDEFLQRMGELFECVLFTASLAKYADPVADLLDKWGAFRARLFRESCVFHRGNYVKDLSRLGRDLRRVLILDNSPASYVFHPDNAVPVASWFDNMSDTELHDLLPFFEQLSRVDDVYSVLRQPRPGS
# H4 = experiment: Luminescence Cell-Based Dose Response HTS to Identify Activators of 5'UTR Stem-Loop Driven Prion Protein mRNA Translation in H4 Neuroglioblastoma Cells. [Related pubchem assays: 1829 (Project Summary), 1814 (Primary HTS)]; format: functional; conditions: Homo sapiens
# [2] = Luminescence Cell-Based Dose Response HTS to Identify Activators of Luciferase Translation or Activity in H4 […] Cells. [Related pubchem assays: 1829 (Project Summary), 1814 (Primary HTS)]; format: functional
# Escherichia coli = experiment: microbe, parasite or virus in culture
# [3] = viability loss in THP-1 monocytes – THP-1 cells, cytotoxicity control for Vif-APOBEC3G degradation inhibitor project, dose response (AID 1117359); format: functional; conditions: THP-1
# [4] = target: Induced myeloid leukemia cell differentiation protein Mcl-1 (Homo sapiens, UniProt Q07820); format: functional
# INS1 = experiment: INS-1E survival protection against cytokine death – cell-based, luminescence, retest, dose response (AID 449756); format: functional; conditions: Rattus norvegicus;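 also: cell death triggered by IL-1 beta plus TNF-alpha plus IFN-gamma mixture; protective hits raise ATP signal compared with cytokine alone wells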
# [5] = Luminescence Cell-Based Dose Retest to Confirm Inhibitors of Cancer Stem Cells. [Related pubchem assays (depositor defined):AID2717, AID2721]; format: functional; conditions: Homo sapiens
# Cytochrome P450 2C19 = Cytochrome P450 2C19 (Homo sapiens, UniProt P33261); experiment: Cytochrome panel assay with activity outcomes. Panel member name: p450-cyp2c19 Compounds with AC50 equal or less than 10 uM are considered active; format: functional
# [6] = viability of HCT116 lacking mutant beta-catenin – cell-based, human colon tumor, dose response (AID 1045); format: functional;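 also: HCT116 colon tumor cells with beta catenin knocked out; cells exposed to compound for 60 hours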
# [7] = target: T3, Replicative DNA helicase DnaB (Mycobacterium tuberculosis, UniProt P9WMR3); experiment: DnaB intein splicing inhibitors, dose response, biochemical, cell-free fluorescence (AID 449749); format: functional
# T3 sequence (P9WMR3 whole entry): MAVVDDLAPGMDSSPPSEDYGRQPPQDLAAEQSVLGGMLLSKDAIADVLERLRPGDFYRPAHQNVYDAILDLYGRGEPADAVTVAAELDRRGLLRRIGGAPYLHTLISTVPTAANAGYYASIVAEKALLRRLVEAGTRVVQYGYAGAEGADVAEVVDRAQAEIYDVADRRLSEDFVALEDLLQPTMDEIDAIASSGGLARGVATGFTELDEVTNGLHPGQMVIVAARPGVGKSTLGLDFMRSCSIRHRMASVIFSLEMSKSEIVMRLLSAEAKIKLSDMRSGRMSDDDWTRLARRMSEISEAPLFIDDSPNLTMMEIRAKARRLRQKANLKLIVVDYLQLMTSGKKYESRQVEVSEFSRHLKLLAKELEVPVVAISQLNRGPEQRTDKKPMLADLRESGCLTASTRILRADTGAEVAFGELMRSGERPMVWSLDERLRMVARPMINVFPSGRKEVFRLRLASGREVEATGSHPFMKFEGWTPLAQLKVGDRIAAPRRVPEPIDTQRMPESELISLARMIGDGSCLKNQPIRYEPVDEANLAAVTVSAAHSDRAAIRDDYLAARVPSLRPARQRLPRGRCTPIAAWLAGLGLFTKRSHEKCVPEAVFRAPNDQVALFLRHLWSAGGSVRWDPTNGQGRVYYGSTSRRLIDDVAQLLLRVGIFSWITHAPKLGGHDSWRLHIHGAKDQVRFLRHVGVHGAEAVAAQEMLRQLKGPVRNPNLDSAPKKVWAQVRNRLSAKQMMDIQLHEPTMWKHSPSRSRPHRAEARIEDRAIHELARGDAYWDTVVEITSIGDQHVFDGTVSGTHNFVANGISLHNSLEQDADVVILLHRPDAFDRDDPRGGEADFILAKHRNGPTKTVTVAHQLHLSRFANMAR
# Protein RecA = target: T4, Protein RecA (Mycobacterium tuberculosis, UniProt P9WHJ3); experiment: Fluorescence Cell-Free Homogeneous Dose Retest to Identify Inhibitors of RecA-Intein Splicing Activity. [Related pubchem assays (depositor defined):AID2097, AID2223, AID489010, AID492950]; format: functional
# T4 sequence (P9WHJ3 whole entry): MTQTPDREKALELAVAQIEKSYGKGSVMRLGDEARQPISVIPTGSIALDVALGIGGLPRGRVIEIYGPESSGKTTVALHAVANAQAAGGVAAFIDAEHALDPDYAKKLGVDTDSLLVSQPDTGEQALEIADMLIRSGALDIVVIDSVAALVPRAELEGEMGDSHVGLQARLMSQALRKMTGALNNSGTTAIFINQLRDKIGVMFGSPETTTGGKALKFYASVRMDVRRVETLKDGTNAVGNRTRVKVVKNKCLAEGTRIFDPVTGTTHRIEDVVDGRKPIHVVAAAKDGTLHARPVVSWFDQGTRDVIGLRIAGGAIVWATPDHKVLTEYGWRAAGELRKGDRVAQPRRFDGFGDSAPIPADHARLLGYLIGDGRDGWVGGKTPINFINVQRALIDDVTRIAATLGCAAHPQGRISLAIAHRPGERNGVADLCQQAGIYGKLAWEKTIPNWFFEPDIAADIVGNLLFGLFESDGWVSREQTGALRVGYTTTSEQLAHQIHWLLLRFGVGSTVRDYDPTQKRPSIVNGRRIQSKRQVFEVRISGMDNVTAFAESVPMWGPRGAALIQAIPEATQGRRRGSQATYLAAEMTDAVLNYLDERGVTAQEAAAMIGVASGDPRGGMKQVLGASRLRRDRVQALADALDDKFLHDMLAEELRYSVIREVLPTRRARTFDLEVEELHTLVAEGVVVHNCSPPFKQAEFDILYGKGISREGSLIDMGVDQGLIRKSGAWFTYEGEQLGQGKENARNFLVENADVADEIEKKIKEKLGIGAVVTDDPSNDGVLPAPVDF
# [8] = viability of PTEN-deleted HCT116 cells – cell-based, HCT116 PTEN knockout, dose response (AID 1047); format: functional;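 also: HCT116 colon tumor cells with PTEN knocked out; cells exposed to compound for 60 hours before readout; potency for loss of cell viability measured by luminescence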
# [9] = target: T5, Microphthalmia-associated transcription factor (Homo sapiens, UniProt O75030); experiment: reducers of TRPM1 reporter luminescence, concentration series – cell-based, SK-MEL-5, cherry-picked, set 3, MITF inhibitor project, dose response (AID 493073); format: functional;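 also: SK-MEL-5 melanoma cells with luciferase driven by the MITF target TRPM1 promoter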
# T5 sequence (O75030 whole entry): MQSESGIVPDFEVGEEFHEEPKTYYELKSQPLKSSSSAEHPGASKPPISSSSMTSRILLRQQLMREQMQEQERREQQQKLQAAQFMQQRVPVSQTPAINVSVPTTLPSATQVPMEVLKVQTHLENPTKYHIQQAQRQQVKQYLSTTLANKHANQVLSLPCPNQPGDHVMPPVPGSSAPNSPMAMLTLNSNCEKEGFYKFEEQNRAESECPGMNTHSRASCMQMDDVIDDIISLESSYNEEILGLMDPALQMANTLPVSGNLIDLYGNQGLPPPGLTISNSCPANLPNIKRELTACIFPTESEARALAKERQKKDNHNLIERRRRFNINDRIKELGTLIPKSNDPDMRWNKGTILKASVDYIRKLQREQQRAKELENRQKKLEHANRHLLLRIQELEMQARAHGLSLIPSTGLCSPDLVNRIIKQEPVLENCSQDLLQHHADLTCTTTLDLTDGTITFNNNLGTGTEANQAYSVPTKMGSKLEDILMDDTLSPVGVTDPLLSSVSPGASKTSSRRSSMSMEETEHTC
# [10] = viability of uninfected HEp-2 cells – cell-based, HTS, cytotoxicity control for RSV inhibitor project, dose response (AID 2410); format: functional; conditions: human respiratory syncytial virus
# [11] = target: Dual specificity tyrosine-phosphorylation-regulated kinase 1A (Rattus norvegicus, UniProt Q63470); format: biochemical, Homo sapiens
# Paired box protein Pax-8 = Paired box protein Pax-8 (Homo sapiens, UniProt Q06710); experiment: PAX8 transcriptional activity inhibition in RMG-I – RMG-I cells, luciferase, cherry-pick, dose response (AID 687027); format: functional, cell-based;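 also: luciferase reporter driven by Pax8 target thyroperoxidase promoter measured by SteadyGlo luminescence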
# [12] = HEK-293T cell viability reduction – luminescence, B-cell screen hits, cytotoxicity control for BCR NF-kB inhibitor project, dose response (AID 489021); format: functional, cell-based;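 also: HEK-293T cells carrying an NF-kB luciferase reporter; cells exposed to compound for about 14 hours before viability readout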
# Chain of Cytochrome P450 2D6 (P10635 whole entry): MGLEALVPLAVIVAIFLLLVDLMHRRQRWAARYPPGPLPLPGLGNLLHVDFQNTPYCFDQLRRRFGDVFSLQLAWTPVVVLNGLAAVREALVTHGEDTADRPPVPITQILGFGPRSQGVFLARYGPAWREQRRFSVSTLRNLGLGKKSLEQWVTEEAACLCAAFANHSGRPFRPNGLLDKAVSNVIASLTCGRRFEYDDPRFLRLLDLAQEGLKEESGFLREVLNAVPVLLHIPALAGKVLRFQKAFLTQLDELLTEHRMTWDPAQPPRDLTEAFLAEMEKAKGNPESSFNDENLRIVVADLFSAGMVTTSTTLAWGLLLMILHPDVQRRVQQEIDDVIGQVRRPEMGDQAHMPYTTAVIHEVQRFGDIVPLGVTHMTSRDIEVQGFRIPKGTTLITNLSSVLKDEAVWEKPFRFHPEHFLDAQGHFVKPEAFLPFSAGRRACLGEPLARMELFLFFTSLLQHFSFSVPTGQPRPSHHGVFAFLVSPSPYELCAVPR
# Chain of Cytochrome P450 2C9 (P11712 whole entry): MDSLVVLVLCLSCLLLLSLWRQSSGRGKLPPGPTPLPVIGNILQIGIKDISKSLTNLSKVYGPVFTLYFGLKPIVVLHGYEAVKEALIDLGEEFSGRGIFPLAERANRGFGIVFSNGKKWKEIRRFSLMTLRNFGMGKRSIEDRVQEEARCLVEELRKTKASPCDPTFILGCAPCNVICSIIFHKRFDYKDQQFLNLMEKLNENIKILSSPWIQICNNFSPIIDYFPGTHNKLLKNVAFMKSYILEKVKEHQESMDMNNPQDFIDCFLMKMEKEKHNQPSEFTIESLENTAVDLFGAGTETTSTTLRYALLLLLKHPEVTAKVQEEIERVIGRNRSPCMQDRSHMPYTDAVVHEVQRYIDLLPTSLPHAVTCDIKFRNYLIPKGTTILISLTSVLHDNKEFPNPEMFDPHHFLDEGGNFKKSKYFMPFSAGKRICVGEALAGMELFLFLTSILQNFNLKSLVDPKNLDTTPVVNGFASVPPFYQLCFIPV
# Chain of Cytochrome P450 2C19 (P33261 whole entry): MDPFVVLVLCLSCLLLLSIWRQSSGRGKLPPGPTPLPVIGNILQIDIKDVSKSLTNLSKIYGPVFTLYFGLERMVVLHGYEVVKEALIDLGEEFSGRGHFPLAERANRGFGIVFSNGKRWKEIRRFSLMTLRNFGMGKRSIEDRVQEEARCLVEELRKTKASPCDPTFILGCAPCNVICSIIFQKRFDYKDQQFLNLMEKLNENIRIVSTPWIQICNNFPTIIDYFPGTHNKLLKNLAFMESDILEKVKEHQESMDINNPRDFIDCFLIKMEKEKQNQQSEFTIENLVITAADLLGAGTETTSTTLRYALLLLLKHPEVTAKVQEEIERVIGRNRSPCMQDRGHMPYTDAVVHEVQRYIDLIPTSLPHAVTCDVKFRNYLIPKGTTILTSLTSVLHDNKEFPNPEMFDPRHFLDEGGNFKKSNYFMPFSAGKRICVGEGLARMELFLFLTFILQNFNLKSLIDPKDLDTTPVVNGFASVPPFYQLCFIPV
# Chain of Cytochrome P450 3A4 (P08684 whole entry): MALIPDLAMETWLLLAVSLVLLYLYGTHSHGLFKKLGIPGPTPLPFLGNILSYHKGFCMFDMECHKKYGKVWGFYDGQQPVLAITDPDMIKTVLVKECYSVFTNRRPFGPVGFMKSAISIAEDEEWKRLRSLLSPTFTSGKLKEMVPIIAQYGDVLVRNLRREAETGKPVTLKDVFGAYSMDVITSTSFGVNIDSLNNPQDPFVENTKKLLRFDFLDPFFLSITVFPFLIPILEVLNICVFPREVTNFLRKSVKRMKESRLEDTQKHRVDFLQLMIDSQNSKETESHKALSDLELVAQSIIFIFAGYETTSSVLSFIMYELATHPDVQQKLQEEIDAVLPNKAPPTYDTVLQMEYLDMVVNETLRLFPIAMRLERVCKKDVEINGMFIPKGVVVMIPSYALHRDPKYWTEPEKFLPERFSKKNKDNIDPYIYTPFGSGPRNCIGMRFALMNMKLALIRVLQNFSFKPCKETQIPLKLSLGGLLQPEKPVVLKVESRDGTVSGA
# Chain of Paired box protein Pax-8 (Q06710 whole entry): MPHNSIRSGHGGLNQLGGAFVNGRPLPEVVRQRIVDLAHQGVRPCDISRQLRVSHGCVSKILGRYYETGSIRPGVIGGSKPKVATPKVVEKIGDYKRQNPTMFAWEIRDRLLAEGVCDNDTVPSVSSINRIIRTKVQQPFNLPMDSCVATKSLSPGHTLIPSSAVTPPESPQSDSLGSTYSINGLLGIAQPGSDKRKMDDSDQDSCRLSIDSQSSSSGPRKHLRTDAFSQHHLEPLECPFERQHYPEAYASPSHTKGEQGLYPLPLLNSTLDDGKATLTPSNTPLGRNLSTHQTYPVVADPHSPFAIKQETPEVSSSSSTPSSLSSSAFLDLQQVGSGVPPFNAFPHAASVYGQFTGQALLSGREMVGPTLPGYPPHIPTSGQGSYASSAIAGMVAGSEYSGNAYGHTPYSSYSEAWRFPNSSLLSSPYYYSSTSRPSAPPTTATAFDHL
# Chain of Induced myeloid leukemia cell differentiation protein Mcl-1 (Q07820 whole entry): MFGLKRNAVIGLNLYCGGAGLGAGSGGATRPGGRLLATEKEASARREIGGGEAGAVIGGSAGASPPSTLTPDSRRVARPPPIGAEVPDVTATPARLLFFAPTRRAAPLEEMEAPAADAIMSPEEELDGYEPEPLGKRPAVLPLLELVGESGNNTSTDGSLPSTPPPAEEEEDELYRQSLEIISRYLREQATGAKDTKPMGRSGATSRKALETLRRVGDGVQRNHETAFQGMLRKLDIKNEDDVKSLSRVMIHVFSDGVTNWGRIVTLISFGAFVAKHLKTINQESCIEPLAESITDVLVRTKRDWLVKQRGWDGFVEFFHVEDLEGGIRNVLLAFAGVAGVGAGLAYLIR
compound,measurement,setting,value
Cc1cc2ccccc2nc1SCC(=O)Nc1nc(-c2ccccc2)cs1,AC50,Cytochrome P450 1A2,200 nM (inconclusive)
same,AC50,Cytochrome P450 2D6,inconclusive
same,AC50,Cytochrome P450 3A4,178 nM (inconclusive)
same,AC50,Cytochrome P450 2C9,1.12 µM (inconclusive)
O=C(NCCc1c[nH]c2ccccc12)c1cc(Cl)c2c(c1)OCO2,AC50,HeLa,70.3 µM (active)
CCOC(=O)C1(C)C(C(=O)OC)=C(c2ccc(OC)cc2)c2ccccc2N1C(=O)OC (configuration not stated),IC50,[1],29.5 µM (active)
O=S(=O)(O)c1ccc(/N=N\c2ccccc2)cc1,AC50,Cytochrome P450 2D6,inconclusive
COc1ccc(-c2nnn(Cc3ccccc3F)n2)cc1,AC50,HeLa,60.2 µM (active)
same,EC50,H4,44.6 µM (inconclusive)
same,EC50,[2],1.75 µM (active)
Cc1ccc(-c2cc(C(F)F)n3ncc(C(=O)Nc4ccc(S(=O)(=O)Nc5ccccc5C)cc4)c3n2)cc1,AC50,Escherichia coli,21.5 µM (active)
COc1cc(/C=C(\C#N)c2nn(CCO)c(N)c2C#N)cc(OC)c1OC,AC50,Escherichia coli,29 µM (active)
CC(=O)c1ccc(NC(=O)CSc2nnc(-c3ccco3)c(-c3ccco3)n2)cc1,CC50,[3],> 40 µM (active)
same,IC50,[1],3.88 µM (active)
same,IC50,[4],8.94 µM (active)
CC(=O)COC(=O)CCc1nc2ccccc2nc1O,AC50,Cytochrome P450 2D6,inconclusive
CCCCNc1c(-c2ccc(-c3cccc(Cl)c3)cc2)nc2ccccn12,AC50,HeLa,32.4 µM (active)
same,AC50,INS1,6.04 µM (active)
same,AC50,[5],3.86 µM (active)
COC(=O)CNC(=O)CN1C(=O)N(c2ccccc2)C(N(O)C(=O)Nc2ccccc2)C1(C)C (configuration not stated),AC50,Cytochrome P450 2C19; read-out: AC50,3.55 µM (inconclusive)
same,AC50,Cytochrome P450 2D6,inconclusive
same,AC50,Cytochrome P450 2C9,10 µM (inconclusive)
O=C(CCl)N(c1ccccc1)c1c[nH]c2ccccc12,EC50,[6],3.3 µM (active)
same,AC50,[7],8.51 µM (active)
same,EC50,Protein RecA,361 nM (active)
same,EC50,[8],3.78 µM (active)
same,AC50,[9],5.09 µM (active)
CCCCSc1nc2c(c(=O)[nH]c(=O)n2C)n1CCc1ccccc1,AC50,Escherichia coli,50.8 µM (active)
CN(CCC#N)C(=O)c1cc2c(s1)-c1ccccc1SC2,AC50,HeLa,63.4 µM (active)
same,CC50,[10],28 µM (active)
COc1ccc(C(=O)C2=C(O)C(=O)N(CCCC(=O)O)C2c2ccc(OC)cc2)cc1 (configuration not stated),AC50,Cytochrome P450 2C19,inconclusive
same,AC50,Cytochrome P450 2D6,inconclusive
CC(=O)O[C@H](COc1c2ccoc2cc2oc(=O)ccc12)C(C)(C)O,AC50,[11],3.74 µM (active)
Cc1ccc(NC(=O)c2ccc([N+](=O)[O-])s2)cc1S(=O)(=O)N1CCOCC1,AC50,Paired box protein Pax-8,3.94 µM (active)
same,AC50,[9],3.78 µM (active)
CCOc1ccc(/C=C2\SC(=S)N(CCC(=O)Nc3cccc(C(=O)O)c3)C2=O)cc1,IC50,[12],> 80 µM (inactive)
same,IC50,[1],3.77 µM (active)
